Usually IC50 stands for the concentration that inhibits the measured activity by half. One may read the Kd as a measure of binding affinity in units of concentration.

A value given as a limit tells only on which side of the number the result lay.

For the first data set, the system named is NCI-H1437. The data set is described as follows: Cytotoxicity against human NCI-H1437 cells measured after 8 days. Format: functional, cell-based. The conditions noted are these: NCI-H1437, 192 h.
`C/C=C/Cn1cc(-c2cc(OC)c(C(=O)N3CCOCC3)cc2OC)c2cc(C)[nH]c2c1=O` returned an IC50 of 2 µM.

Regarding `C/C=C/Cn1cc(-c2ccc(C(C)(C)O)cc2OC)c2cc[nH]c2c1=O`, the concentration for half-maximal inhibition (IC50) is 20 µM.

The compound `C/C=C/Cn1cc(-c2ccc(C(=O)N3CCOCC3)cc2)c2cc[nH]c2c1=O` gave a concentration for half-maximal inhibition (IC50) of 20 µM.

The test system of a further data set is MHH-PREB-1. The data set is described as follows: Cytotoxicity against human MHH-PREB-1 cells measured after 8 days. Format: functional, cell-based. The conditions noted are these: MHH-PREB-1, 192 h.
`C/C=C/Cn1cc(-c2cc(OC)c(C(=O)N3CCOCC3)cc2OC)c2cc(C)[nH]c2c1=O`: the IC50 is 2 µM.

Turning to `C/C=C/Cn1cc(-c2ccc(C(C)(C)O)cc2OC)c2cc[nH]c2c1=O`, the IC50 was 20 µM.

`C/C=C/Cn1cc(-c2ccc(C(=O)N3CCOCC3)cc2)c2cc[nH]c2c1=O`: half-maximal inhibition (IC50) required 20 µM.

For the next data set, the system named is LS-1034. As to the kind of experiment: Cytotoxicity against human LS1034 cells measured after 8 days. It is filed as functional, cell-based. To be noted: LS-1034, 192 h.
The compound `C/C=C/Cn1cc(-c2cc(OC)c(C(=O)N3CCOCC3)cc2OC)c2cc(C)[nH]c2c1=O` had an IC50 of 2 µM.

On to `C/C=C/Cn1cc(-c2ccc(C(C)(C)O)cc2OC)c2cc[nH]c2c1=O`, for which the half-maximal inhibitory concentration (IC50) amounted to 20 µM.

Turning to `C/C=C/Cn1cc(-c2ccc(C(=O)N3CCOCC3)cc2)c2cc[nH]c2c1=O`, the IC50 came out at 20 µM.

For another data set, the system named is HCC78. The data set is described as follows: Cytotoxicity against human HCC78 cells measured after 8 days. Format: functional, cell-based. To be noted: HCC78, 192 h.
`C/C=C/Cn1cc(-c2cc(OC)c(C(=O)N3CCOCC3)cc2OC)c2cc(C)[nH]c2c1=O`: the IC50 amounted to 2 µM.

Regarding `C/C=C/Cn1cc(-c2ccc(C(C)(C)O)cc2OC)c2cc[nH]c2c1=O`, the IC50 is 20 µM.

`C/C=C/Cn1cc(-c2ccc(C(=O)N3CCOCC3)cc2)c2cc[nH]c2c1=O` came in with an IC50 of 20 µM.

For a further data set, the target named is Bromodomain adjacent to zinc finger domain protein 2B (Homo sapiens, UniProt Q9UIF8). The data set is described as follows: Binding affinity to human partial length BAZ2B (S2054 to S2168 residues) expressed in bacterial expression system by BROMOscan assay.
Bromodomain adjacent to zinc finger domain protein 2B, sequence (Q9UIF8 whole entry, the tested form may be a part): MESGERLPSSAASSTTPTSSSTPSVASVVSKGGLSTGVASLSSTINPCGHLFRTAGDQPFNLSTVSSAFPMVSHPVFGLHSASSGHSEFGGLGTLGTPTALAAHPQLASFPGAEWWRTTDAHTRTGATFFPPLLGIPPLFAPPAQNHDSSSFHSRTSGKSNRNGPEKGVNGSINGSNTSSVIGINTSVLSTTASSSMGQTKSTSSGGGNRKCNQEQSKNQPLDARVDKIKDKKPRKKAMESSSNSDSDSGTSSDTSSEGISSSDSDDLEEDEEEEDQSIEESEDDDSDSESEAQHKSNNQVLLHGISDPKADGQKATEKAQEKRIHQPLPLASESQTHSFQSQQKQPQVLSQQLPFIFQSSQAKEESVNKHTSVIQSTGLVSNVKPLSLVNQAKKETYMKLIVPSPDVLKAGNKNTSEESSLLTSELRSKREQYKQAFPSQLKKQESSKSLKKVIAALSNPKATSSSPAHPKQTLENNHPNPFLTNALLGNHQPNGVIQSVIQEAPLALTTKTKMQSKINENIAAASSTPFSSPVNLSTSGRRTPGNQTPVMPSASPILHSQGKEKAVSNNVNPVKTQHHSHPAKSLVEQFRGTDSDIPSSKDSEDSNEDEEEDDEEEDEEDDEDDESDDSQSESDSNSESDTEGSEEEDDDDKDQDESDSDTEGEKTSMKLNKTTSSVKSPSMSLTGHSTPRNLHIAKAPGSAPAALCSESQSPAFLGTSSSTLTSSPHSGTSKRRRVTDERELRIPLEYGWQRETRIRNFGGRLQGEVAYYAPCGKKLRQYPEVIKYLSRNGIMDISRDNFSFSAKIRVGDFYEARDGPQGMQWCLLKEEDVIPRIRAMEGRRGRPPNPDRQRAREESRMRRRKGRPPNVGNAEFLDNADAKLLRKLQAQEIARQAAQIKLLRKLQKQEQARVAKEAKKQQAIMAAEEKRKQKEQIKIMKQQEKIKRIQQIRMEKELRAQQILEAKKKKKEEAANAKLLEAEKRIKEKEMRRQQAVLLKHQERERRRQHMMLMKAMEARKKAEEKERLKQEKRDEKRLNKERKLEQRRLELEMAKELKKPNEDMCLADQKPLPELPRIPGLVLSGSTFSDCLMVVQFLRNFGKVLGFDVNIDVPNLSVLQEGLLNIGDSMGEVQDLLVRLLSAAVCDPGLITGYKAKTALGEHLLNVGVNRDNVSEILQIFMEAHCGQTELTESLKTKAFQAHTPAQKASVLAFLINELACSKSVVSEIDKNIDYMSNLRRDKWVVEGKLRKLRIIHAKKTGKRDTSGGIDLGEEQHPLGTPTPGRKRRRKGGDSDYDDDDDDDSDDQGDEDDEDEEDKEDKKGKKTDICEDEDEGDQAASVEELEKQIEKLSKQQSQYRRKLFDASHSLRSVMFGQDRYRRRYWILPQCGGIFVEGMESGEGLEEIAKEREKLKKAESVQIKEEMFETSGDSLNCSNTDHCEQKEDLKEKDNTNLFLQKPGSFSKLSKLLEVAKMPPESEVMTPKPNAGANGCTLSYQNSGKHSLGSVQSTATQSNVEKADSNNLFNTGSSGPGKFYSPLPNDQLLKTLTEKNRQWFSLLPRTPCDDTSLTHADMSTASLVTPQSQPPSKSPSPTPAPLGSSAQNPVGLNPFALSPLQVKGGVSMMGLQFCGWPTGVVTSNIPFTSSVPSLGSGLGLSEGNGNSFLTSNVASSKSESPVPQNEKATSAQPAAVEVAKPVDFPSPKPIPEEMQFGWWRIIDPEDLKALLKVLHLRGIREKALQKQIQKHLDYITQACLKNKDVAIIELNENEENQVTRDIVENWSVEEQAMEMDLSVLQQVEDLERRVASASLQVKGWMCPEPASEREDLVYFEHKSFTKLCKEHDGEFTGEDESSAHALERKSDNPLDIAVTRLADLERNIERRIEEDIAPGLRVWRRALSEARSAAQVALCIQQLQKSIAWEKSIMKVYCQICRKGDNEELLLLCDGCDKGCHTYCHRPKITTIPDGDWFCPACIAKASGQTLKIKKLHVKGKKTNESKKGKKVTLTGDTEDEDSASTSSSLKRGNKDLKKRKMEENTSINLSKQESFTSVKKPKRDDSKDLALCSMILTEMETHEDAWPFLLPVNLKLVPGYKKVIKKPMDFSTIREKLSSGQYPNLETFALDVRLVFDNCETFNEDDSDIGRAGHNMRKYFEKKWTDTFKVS
Details: not given
`C/C=C/Cn1cc(-c2cc(OC)c(C(=O)N3CCOCC3)cc2OC)c2cc(C)[nH]c2c1=O` yielded a dissociation constant (Kd) greater than 10 µM.

In turn, `C/C=C/Cn1cc(-c2ccc(C(C)(C)O)cc2OC)c2cc[nH]c2c1=O` came in with a Kd greater than 10 µM.

Take `C/C=C/Cn1cc(-c2ccc(C(=O)N3CCOCC3)cc2)c2cc[nH]c2c1=O`: the Kd is greater than 10 µM.

`C/C=C/Cn1cc(-c2cc(OC)c(C(C)(C)O)cc2OC)c2cc(C)[nH]c2c1=O` registered a Kd greater than 10 µM.

The target in the next data set is Bromodomain-containing protein 4 (Homo sapiens, UniProt O60885). The data set is described as follows: Binding affinity to human partial length BRD4 bromodomain 1 long isoform (N44 to E168 residues) expressed in bacterial expression system by BROMOscan assay.
Details: not given
Compound `C/C=C/Cn1cc(-c2cc(OC)c(C(=O)N3CCOCC3)cc2OC)c2cc(C)[nH]c2c1=O` showed a Kd greater than 10 µM.

`C/C=C/Cn1cc(-c2ccc(C(C)(C)O)cc2OC)c2cc[nH]c2c1=O` displayed a dissociation constant (Kd) of 1.6 µM.

Turning to `C/C=C/Cn1cc(-c2ccc(C(=O)N3CCOCC3)cc2)c2cc[nH]c2c1=O`, binding was put at a Kd of 1.7 µM.

`C/C=C/Cn1cc(-c2cc(OC)c(C(C)(C)O)cc2OC)c2cc(C)[nH]c2c1=O` came in with a Kd of 9.4 µM.

A further data set concerns the target T1, Bromodomain-containing protein 7 (Homo sapiens, UniProt Q9NPI1).
T1 sequence (Q9NPI1 whole entry): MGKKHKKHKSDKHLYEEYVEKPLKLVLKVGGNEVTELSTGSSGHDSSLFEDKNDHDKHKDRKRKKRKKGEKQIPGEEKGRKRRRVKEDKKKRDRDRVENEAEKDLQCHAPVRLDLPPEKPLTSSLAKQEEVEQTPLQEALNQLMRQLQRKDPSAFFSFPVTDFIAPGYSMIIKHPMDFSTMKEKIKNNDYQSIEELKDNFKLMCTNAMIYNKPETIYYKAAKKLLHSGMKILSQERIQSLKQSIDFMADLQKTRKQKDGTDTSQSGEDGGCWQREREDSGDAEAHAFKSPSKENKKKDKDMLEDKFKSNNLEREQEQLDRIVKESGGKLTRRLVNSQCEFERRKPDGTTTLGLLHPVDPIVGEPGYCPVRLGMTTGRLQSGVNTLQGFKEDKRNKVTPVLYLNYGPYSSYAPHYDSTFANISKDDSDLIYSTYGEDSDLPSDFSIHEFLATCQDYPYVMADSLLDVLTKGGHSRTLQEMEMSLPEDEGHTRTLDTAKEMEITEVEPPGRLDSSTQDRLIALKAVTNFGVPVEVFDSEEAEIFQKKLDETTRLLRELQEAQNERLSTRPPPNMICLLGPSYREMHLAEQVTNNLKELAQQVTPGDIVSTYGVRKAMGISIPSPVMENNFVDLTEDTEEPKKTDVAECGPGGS
As to the kind of experiment: Binding affinity to human partial length BRD7 (L125 to R254 residues) expressed in mammalian expression system by BROMOscan assay.
Details: not given
Consider `C/C=C/Cn1cc(-c2cc(OC)c(C(=O)N3CCOCC3)cc2OC)c2cc(C)[nH]c2c1=O`, for which binding was put at a Kd of 0.11 µM.

On to `C/C=C/Cn1cc(-c2ccc(C(C)(C)O)cc2OC)c2cc[nH]c2c1=O`, for which the Kd turned out to be 0.34 µM.

In turn, `C/C=C/Cn1cc(-c2ccc(C(=O)N3CCOCC3)cc2)c2cc[nH]c2c1=O` showed a Kd of 0.2 µM.

Compound `C/C=C/Cn1cc(-c2cc(OC)c(C(C)(C)O)cc2OC)c2cc(C)[nH]c2c1=O` showed a Kd of 0.52 µM.

A further data set concerns the target T2, Peroxisome proliferator-activated receptor gamma (Homo sapiens) (UniProt P37231).
T2 sequence (whole entry): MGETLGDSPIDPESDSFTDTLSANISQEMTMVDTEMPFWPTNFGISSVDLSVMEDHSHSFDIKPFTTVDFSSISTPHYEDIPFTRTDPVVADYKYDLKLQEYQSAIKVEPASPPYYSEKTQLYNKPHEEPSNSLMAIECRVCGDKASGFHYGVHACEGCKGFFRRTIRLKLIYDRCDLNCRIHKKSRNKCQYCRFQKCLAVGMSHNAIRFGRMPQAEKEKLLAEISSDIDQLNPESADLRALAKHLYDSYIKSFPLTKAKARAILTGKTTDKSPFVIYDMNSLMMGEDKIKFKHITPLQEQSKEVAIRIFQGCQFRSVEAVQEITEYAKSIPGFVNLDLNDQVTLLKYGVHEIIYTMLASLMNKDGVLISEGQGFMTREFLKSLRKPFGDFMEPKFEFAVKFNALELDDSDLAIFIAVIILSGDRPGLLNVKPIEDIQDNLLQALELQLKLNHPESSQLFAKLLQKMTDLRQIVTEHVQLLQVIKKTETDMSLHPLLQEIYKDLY
The data set is described as follows: Inhibition of human PPARgamma at 10 uM relative to control.
Details: not given
`C/C=C/Cn1cc(-c2cc(OC)c(C(=O)N3CCOCC3)cc2OC)c2cc(C)[nH]c2c1=O`: the inhibition came out at 9%.

For the compound `C/C=C/Cn1cc(-c2ccc(C(C)(C)O)cc2OC)c2cc[nH]c2c1=O`, the inhibition was 18%.

As to `C/C=C/Cn1cc(-c2ccc(C(=O)N3CCOCC3)cc2)c2cc[nH]c2c1=O`, the inhibition worked out at 49%.

The target in a further data set is L-type calcium channel, verapamil binding site (Rattus norvegicus, UniProt P22002+P27732+Q02485). As to the kind of experiment: Displacement of [3H]D 888 from rat brain L-type calcium channel verapamil binding site at 10 uM after 120 mins by scintillation counting analysis relative to control. To be noted: rat brain L-type calcium channel preparation, probe [3H]D 888, read-out: Activity. Background: Displacement assays read how much labelled ligand stays bound in the presence of the test substance.
With `C/C=C/Cn1cc(-c2cc(OC)c(C(=O)N3CCOCC3)cc2OC)c2cc(C)[nH]c2c1=O`, the inhibition at 2 h, 10 µM was found to be 3%.

On to `C/C=C/Cn1cc(-c2ccc(C(C)(C)O)cc2OC)c2cc[nH]c2c1=O`, for which the inhibition at 2 h, 10 µM is -3%.

Regarding `C/C=C/Cn1cc(-c2ccc(C(=O)N3CCOCC3)cc2)c2cc[nH]c2c1=O`, the inhibition at 2 h, 10 µM was 7%.

The values above are taken from ChEMBL document CHEMBL5260810, “Inhibition of bromodomain-containing protein 9 for the prevention of epigenetically-defined drug resistance” (Bioorg Med Chem Lett, 2017).
